In PMC6426682 (ACS chemical neuroscience, 2018):

Key:
[1] = target: uncoupled low affinity receptor (CB1); conditions: read-out: Ki for the uncoupled low affinity receptor; cited from earlier work
CB1 receptor [2] = target: T1, CB1 receptor (Mus musculus, UniProt P47746); experiment: [3H]CP55,940 equilibrium radioligand binding; conditions: for [3H]CP55,940 Curve-fit top ± S.E.: mouse cerebellar membranes
CB1 receptor [3] = target: T1, CB1 receptor; experiment: [3H]SR141716 equilibrium radioligand binding; conditions: for remaining activity at 32 µM: 1.5 h, read-out: %[3H]SR141716 Binding ± S.E.; for effect on [3H]SR141716 binding (in words): 1 nM [3H]SR141716
CB1 receptor [4] = target: T1, CB1 receptor; experiment: [3H]CP55,940 saturation binding in presence of allosteric modulator; conditions: Bmax of the radioligand at 10 μM of test compound; vehicle 1.56 ± 0.09
[5] = in vivo; cited from earlier work
rats = conditions: cited from earlier work
[6] = cited from earlier work
CB1 receptor [7] = target: T1, CB1 receptor; experiment: Agonist-stimulated [35S]GTP-γ-S binding assay in mouse cerebellar membranes; type: biochemical
human CB1 receptor = human CB1 receptor (Homo sapiens, UniProt P21554); experiment: CB1 calcium mobilization assay; type: cell-based; conditions: for IC50: CB1 Calcium assay IC50, against EC80 (100 nM) of CP55,940 in stable human CB1-CHO-RD-HGA16 cells, mean ± SEM; for fold reduction in potency compared to 1, CB1 calcium assay: relative to 1
Sequence of human CB1 receptor (P21554 whole entry): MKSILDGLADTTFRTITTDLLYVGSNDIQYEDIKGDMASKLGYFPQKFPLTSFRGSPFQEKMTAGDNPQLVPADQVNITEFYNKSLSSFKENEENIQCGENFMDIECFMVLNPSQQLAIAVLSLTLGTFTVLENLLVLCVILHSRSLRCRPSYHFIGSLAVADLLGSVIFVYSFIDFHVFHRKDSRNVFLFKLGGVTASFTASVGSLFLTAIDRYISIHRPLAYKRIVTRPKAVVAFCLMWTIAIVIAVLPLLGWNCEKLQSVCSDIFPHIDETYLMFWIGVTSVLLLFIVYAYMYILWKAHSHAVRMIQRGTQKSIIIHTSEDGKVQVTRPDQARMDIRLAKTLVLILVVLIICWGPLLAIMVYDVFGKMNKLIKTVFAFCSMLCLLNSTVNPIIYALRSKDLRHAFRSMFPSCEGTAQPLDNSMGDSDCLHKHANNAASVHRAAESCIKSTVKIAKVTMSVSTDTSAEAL

T1 sequence (P47746 whole entry): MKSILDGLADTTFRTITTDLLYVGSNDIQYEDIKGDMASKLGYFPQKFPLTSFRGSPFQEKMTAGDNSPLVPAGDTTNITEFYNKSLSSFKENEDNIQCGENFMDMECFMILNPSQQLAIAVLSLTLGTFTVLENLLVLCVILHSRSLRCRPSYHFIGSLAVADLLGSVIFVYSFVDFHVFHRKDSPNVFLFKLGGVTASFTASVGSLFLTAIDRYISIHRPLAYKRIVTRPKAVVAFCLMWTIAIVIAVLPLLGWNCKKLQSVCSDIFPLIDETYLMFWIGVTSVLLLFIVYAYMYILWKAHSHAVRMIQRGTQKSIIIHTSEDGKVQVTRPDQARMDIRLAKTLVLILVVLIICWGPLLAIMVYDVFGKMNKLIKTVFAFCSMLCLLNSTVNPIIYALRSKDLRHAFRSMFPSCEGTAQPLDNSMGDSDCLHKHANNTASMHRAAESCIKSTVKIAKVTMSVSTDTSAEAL

Row | SMILES | EC50 (CB1 receptor [2]) [µM] | IC50 (CB1 receptor [3]) [µM] | remaining activity at 32 µM (CB1 receptor [3]) [%] | [3H]CP55,940 Bmax ± S.E. (CB1 receptor [4]) [pmol/mg] | [3H]CP55,940 Curve-fit top ± S.E. (CB1 receptor [2]; 1 nM [3H]CP55,940) | also measured
1 | CCCCCCC(C)(C)c1ccc([C@@H]2C[C@H](O)CC[C@H]2CCCO)c(O)c1 [CP55,940] | – | – | – | – | – | Ki [1]: ~0.1 µM
2 | O=C(Nc1ccc(Cl)cc1)Nc1cccc(-c2cccc(N3CCCC3)n2)c1 [Compound 1, 1-(4-Chlorophenyl)-3-{3-[6-(pyrrolidin-1-yl)pyridin-2-yl]phenyl}urea, reference compound] | 2.04 | 12.3 | 20.4 ± 3.05 | 4.53 ± 0.29 | – | [3H]CP55,940 maximum binding level (CB1 receptor [2]; 1 nM [3H]CP55,940): 256%; Emax (CB1 receptor [2]; 1.5 h, read-out: [3H]CP55,940 Curve-fit top ± S.E.): 256 ± 5.59%; food intake and body weight [5]: demonstrated efficacy in reducing food intake and body weight; prime-induced reinstatement of extinguished cocaine-seeking behavior (rats): attenuated prime-induced reinstatement of extinguished cocaine-seeking behavior in rats; tetrahydrocannabinol-induced anti-nociception [6]: attenuated tetrahydrocannabinol-induced anti-nociception
3 | O=C(Nc1ccc(Cl)cc1)Nc1cccc(-c2ccoc2)c1 [Compound 8, 3‐(4‐Chlorophenyl)‐1‐[3‐(furan‐3‐yl)phenyl]urea] | 7.41 | 17.4 | 34.9 ± 2.43 | 3.22 ± 0.19 | 174.1 ± 8.86 | fold less potent than 1 in the GTP-γ-S assay (CB1 receptor [7]; relative to 1): ~ 4 fold
4 | O=C(Nc1ccc(Cl)cc1)Nc1cccc(-c2ccsc2)c1 [Compound 9, 3‐(4‐Chlorophenyl)‐1‐[3‐(thiophen‐3‐yl)phenyl]urea] | 4.57 | 11.2 | 20.4 ± 2.13 | – | 264.6 ± 9.81 | –
5 | O=C(Nc1ccc(Cl)cc1)Nc1cccc(-c2cccs2)c1 [Compound 10, 3‐(4‐Chlorophenyl)‐1‐[3‐(thiophen‐2‐yl)phenyl]urea] | 5.75 | 28.8 | 45.54 ± 0.15 | – | 199.8 ± 8.78 | –
6 | Cc1cc(-c2cccc(NC(=O)Nc3ccc(Cl)cc3)c2)cs1 [Compound 11, 3‐(4‐Chlorophenyl)‐1‐[3‐(5‐methylthiophen‐3‐yl)phenyl]urea] | 3.89 | 83.2 | 73.2 ± 5.77 | 3.64 ± 0.17 | 226.0 ± 5.82 | fold reduction in inhibitory potency on introduction of a methyl group, GTP-γ-S assay (CB1 receptor [7]; relative to the 3-thiophenyl analogue (9)): 5 fold; effect on [3H]SR141716 binding (in words) (CB1 receptor [3]): only exhibited a slight reduction in [^3H]SR141716 binding
7 | Cc1ccc(-c2cccc(NC(=O)Nc3ccc(Cl)cc3)c2)s1 [Compound 12, 3‐(4‐Chlorophenyl)‐1‐[3‐(5‐methylthiophen‐2‐yl)phenyl]urea] | 13.2 | 22.9 | 86.9 ± 5.87 | – | 233.3 ± 20.53 | effect on [3H]SR141716 binding (in words) (CB1 receptor [3]): only exhibited a slight reduction in [^3H]SR141716 binding
8 | O=C(Nc1ccc(Cl)cc1)Nc1cccc(-c2ccc[nH]2)c1 [Compound 13, 3‐(4‐Chlorophenyl)‐1‐[3‐(1H‐pyrrol‐2‐yl)phenyl]urea] | 1.38 | 14.1 | 26.6 ± 5.68 | 5.87 ± 0.15 | 458.3 ± 16.25 | IC50 (human CB1 receptor): 0.165 to 0.169 µM; fold reduction in potency compared to 1, CB1 calcium assay (human CB1 receptor): about 3 fold; [3H]CP55,940 maximum binding level (CB1 receptor [2]; 1 nM [3H]CP55,940): 458%; fold increase of [3H]CP55,940 binding level compared to 1 (CB1 receptor [2]; relative to 1): more than 2 fold
9 | Cn1cccc1-c1cccc(NC(=O)Nc2ccc(Cl)cc2)c1 [Compound 14, 3‐(4‐Chlorophenyl)‐1‐[3‐(1‐methyl‐1H‐pyrrol‐2‐yl)phenyl]urea] | 5.62 | 17.8 | 41.4 ± 3.26 | – | 164.5 ± 8.61 | IC50 (human CB1 receptor): 0.165 to 0.169 µM; fold reduction in potency compared to 1, CB1 calcium assay (human CB1 receptor): about 3 fold
10 | CC(C)(C)OC(=O)n1cccc1-c1cccc(NC(=O)Nc2ccc(Cl)cc2)c1 [Compound 15] | 14.8 | 8.51 | 17.2 ± 4.12 | – | 15.5 ± 24.12 | IC50 (human CB1 receptor): 3.44 ± 0.451 µM; IC50 (CB1 receptor [7]): 3.24 µM; effect on [3H]CP55,940 binding (in words) (CB1 receptor [2]; 1 nM [3H]CP55,940): significantly decreased the binding of the radioligand
11 | O=C(Nc1ccc(Cl)cc1)Nc1cccc(-c2cscn2)c1 [Compound 16, 3‐(4‐Chlorophenyl)‐1‐[3‐(1,3‐thiazol‐4‐yl)phenyl]urea] | 10.7 | 25.7 | 44.3 ± 1.42 | – | 224.2 ± 15.85 | –
12 | O=C(Nc1ccc(Cl)cc1)Nc1cccc(-c2cncs2)c1 [Compound 17, 3‐(4‐Chlorophenyl)‐1‐[3‐(1,3‐thiazol‐5‐yl)phenyl]urea] | 6.46 | 2.95 | 50.6 ± 2.04 | 3.57 ± 0.25 | 181.2 ± 8.15 | –
13 | O=C(Nc1ccc(Cl)cc1)Nc1cccc(-c2nccs2)c1 [Compound 18, 3‐(4‐Chlorophenyl)‐1‐[3‐(1,3‐thiazol‐2‐yl)phenyl]urea] | 5.13 | 16.6 | 37.7 ± 0.76 | – | 134.2 ± 4.47 | –
14 | O=C(Nc1ccc(Cl)cc1)Nc1cccc(-c2ncc[nH]2)c1 [Compound 19, 3‐(4‐Chlorophenyl)‐1‐[3‐(1H‐imidazol‐2‐yl)phenyl]urea] | 10.2 | 123 | 34.8 ± 8.94 | – | 355.7 ± 27.39 | fold reduction in potency compared to 1, CB1 calcium assay (human CB1 receptor): around 16 fold; [3H]CP55,940 maximum binding level (CB1 receptor [2]; 1 nM [3H]CP55,940): 355%
